Like-named read-outs stand apart in the source and are kept apart here.
Legend:
[1] = target: T1, N-type calcium channel α1B (Cav2.2), β3 and α2δ subunits (Homo sapiens, UniProt Q00975); test: Functional assay, antagonism of N-type calcium channel (FDSS calcium mobilization response to KCl depolarization); format: cell-based
T1 construct: expressed in transfected cells
In short: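 HEK cells stably co-expressing α1B (Cav2.2), β3 and α2δ subunits were loaded with calcium dye, preincubated with compound for 5 min, then depolarized with 50 mM KCl and read for 3 min by FDSS fluorescence. IC50 from six-point curves, normalized to KCl maximum and buffer minimum.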

[2] = target: T2, N-type calcium channel (Homo sapiens, UniProt Q00975); test: Automated electrophysiology assay (QPatch-HT whole-cell patch clamp); format: cell-based; settings: 1 μM
T2 construct: expressed in transfected cells
In short: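 Whole-cell QPatch recordings used 10 mM Ba²⁺/TEA external solution and CsCl internal solution. Trains of 15 pulses at 5 Hz to +20 mV from −80 mV were applied; 1st- and 15th-pulse currents were normalized to control, with CdCl2 zeroing. […]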

T1 sequence (Q00975 whole entry): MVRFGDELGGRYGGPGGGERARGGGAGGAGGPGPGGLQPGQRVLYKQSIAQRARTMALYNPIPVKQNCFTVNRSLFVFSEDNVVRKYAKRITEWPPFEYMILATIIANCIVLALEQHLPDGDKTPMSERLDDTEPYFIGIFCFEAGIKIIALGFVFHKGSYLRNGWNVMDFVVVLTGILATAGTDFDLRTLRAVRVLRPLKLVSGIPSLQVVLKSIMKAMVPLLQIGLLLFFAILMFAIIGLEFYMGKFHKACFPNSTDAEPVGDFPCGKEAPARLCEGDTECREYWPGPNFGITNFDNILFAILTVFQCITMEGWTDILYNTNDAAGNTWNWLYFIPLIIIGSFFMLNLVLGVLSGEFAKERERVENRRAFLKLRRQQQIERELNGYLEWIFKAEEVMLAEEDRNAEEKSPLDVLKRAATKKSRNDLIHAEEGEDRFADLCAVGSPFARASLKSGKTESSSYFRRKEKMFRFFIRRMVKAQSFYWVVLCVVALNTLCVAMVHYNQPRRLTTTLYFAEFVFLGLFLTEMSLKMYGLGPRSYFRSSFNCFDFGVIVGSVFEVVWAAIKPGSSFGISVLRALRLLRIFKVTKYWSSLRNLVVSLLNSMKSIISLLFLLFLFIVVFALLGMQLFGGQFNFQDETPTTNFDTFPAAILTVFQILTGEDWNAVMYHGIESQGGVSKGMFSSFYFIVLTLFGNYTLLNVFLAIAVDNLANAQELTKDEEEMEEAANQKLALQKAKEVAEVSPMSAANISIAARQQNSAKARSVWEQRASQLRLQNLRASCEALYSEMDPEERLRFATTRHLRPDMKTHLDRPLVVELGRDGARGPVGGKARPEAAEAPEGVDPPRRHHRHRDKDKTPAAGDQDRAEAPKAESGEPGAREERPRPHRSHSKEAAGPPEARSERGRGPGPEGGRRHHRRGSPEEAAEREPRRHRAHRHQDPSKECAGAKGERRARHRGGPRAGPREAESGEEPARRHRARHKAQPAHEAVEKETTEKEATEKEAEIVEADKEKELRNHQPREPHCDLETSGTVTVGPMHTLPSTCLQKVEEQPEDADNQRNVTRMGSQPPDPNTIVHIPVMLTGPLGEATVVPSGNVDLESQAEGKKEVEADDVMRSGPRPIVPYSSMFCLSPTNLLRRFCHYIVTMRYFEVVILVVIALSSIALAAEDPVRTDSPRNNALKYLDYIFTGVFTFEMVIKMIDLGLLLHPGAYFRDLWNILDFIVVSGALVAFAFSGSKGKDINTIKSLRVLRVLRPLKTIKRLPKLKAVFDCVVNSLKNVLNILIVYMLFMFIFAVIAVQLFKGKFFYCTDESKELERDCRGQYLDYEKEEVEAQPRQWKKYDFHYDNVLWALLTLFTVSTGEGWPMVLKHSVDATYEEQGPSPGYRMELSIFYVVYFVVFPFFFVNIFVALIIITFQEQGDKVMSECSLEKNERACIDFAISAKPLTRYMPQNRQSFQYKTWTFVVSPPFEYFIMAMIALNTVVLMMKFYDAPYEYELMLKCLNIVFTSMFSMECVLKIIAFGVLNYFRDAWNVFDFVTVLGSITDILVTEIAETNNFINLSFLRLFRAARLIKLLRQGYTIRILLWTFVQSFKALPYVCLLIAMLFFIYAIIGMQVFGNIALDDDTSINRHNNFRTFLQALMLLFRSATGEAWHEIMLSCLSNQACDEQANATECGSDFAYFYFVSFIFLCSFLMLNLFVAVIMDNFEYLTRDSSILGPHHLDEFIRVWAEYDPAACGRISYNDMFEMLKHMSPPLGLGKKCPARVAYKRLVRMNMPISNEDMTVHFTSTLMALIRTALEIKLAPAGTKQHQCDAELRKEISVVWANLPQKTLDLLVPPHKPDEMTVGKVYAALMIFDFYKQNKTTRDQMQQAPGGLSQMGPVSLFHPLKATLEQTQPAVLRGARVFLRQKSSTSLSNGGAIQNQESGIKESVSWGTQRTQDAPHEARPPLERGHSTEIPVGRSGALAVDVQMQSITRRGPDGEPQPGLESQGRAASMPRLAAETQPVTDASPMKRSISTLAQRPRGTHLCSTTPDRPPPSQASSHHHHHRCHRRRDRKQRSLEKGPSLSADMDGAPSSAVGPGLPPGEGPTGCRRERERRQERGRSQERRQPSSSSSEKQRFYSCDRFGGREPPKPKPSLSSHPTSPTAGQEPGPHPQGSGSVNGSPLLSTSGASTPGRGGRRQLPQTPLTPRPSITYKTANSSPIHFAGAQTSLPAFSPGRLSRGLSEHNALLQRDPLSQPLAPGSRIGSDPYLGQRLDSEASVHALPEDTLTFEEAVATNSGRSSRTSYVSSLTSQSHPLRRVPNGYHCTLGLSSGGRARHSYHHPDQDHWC
T1 sequence (P54284 whole entry partner): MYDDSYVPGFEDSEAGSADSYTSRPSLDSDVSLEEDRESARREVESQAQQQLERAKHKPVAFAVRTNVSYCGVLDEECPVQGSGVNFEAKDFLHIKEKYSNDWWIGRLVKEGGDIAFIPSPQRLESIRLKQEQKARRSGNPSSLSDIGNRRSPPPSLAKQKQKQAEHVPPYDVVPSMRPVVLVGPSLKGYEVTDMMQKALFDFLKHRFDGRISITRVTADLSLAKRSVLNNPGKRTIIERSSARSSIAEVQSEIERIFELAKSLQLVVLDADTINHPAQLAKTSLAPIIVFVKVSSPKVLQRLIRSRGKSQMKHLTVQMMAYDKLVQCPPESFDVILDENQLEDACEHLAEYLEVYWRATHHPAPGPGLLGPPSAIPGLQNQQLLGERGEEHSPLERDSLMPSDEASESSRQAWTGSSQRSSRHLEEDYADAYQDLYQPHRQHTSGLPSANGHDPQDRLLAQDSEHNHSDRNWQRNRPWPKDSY
T1 sequence (P54289 25-956 partner limits assumed): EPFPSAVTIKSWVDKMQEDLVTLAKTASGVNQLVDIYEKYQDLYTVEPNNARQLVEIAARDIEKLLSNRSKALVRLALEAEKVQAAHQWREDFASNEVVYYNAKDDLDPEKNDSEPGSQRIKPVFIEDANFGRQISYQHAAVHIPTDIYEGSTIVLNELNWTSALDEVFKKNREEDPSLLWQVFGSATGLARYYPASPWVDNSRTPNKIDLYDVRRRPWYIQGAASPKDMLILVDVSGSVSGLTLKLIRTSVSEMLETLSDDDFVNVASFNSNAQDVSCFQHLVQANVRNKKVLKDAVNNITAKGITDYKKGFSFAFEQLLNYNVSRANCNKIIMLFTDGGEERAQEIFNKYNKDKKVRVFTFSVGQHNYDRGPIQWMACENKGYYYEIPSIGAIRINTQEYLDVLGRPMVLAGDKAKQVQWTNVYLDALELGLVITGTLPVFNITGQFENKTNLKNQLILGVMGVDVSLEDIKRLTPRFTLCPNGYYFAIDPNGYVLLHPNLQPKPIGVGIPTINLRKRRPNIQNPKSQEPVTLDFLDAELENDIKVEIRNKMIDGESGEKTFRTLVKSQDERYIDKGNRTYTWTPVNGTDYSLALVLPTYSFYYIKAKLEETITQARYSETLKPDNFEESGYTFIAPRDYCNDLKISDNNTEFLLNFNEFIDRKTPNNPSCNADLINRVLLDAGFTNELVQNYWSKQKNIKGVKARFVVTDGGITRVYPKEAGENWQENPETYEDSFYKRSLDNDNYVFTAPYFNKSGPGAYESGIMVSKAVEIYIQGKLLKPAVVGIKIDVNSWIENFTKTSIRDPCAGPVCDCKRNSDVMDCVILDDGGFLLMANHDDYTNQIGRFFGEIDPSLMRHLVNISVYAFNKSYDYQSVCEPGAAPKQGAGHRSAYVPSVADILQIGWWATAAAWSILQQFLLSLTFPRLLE
T1 sequence (P54289 957-1103 partner limits assumed): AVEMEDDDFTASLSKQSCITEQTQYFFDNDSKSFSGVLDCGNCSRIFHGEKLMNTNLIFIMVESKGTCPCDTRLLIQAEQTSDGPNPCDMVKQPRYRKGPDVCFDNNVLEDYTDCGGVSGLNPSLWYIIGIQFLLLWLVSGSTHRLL
T2 sequence (Q00975 whole entry): as the sequence (Q00975 whole entry) above
T2 sequence (P54284 whole entry partner): as the sequence (P54284 whole entry partner) above
T2 sequence (P54289 25-956 partner limits assumed): as the sequence (P54289 25-956 partner limits assumed) above
T2 sequence (P54289 957-1103 partner limits assumed): as the sequence (P54289 957-1103 partner limits assumed) above

inhibition at 0.33 µM ([1]; 0.33 μM compound, FDSS, 50 mM KCl): 67%
IC50 ([1]; HEK stable cell line, 50 mM KCl depolarization, six-point concentration-response): 43 nM
inhibition at 1 µM ([2]; high frequency (15th pulse of train, 5 Hz), read-out: QPatch at High Frequency % Inhibition): 60%
inhibition at 1 µM ([2]; low frequency (1st pulse of train), read-out: QPatch at Low Frequency % Inhibition): 40%
SMILES: COc1ccc(-c2c3c(nn2-c2ccccc2OC)CN(S(=O)(=O)C(C)C)C3)cn1 [Cpd 97, 2-(2-Methoxyphenyl)-3-(6-methoxypyridin-3-yl)-5-[(1-methylethyl)sulfonyl]-2,4,5,6-tetrahydropyrrolo[3,4-c]pyrazole]
